US6118050A, “Hydroxyphenylpyruvate dioxygenase gene from arabidopsis and method of screening for inhibitors thereof” (American Cyanamid Company, priority 1997, dated 2000)

Legend:
[1] = biological target: partially purified HPPD from barnyardgrass (Echinochloa crus-galli L.); details: partially purified HPPD from barnyardgrass (Secor, 1994); cited from earlier work
susceptible plants = details: cited from earlier work
[2] = biological target: partially purified enzyme extracted from maize (HPPD); details: partially purified maize enzyme (Schulz et al., 1993); read-out: calculated IC50; cited from earlier work
Arabidopsis HPPD = biological target: T1, Arabidopsis HPPD (Arabidopsis thaliana, UniProt P93836); test: HPPD enzymatic activity by capture of released 14CO2 from 14C-hydroxyphenylpyruvate, extract of E. coli transformed with Arabidopsis HPPD gene; type: biochemical
T1 construct: made in house; host or cells: E. coli (pKK233-2, trc promoter); desalted lysate supernatant
T1 sequence (P93836 1-445): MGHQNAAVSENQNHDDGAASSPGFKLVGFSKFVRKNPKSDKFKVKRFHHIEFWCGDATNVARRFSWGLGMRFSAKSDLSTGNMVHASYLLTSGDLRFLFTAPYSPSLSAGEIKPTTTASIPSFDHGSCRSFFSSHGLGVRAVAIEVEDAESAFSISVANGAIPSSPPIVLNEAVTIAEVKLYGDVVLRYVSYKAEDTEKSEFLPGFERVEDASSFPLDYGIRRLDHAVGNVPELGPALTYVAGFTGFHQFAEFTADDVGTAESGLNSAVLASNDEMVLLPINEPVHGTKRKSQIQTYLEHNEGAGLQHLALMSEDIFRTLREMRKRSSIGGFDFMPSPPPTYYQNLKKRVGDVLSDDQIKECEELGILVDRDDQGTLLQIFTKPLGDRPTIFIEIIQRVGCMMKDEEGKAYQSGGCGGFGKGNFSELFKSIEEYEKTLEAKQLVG
Protocol: E. coli transformants were treated with 0.1 mg/ml lysozyme in 50 mM potassium phosphate buffer (pH 7.3) at 30° C. for 10 min. Cells were sonicated (3 times, 5 sec each, using a VibraCell sonicator, Sonics and Material, Inc., Danbury, Conn.) and the extract was subjected to centrifugation. The supernatant was desalted on an Econo-Pac 10DG column (Bio-Rad, Richmond, Calif.) that had been equilibrated with 50 mM phosphate buffer (pH 7.3). The desalted HPPD-containing extract was used for the HPPD assay.
HPPD enzymatic activity was determined by the capture of released ^14 CO2 from ^14 C-hydroxyphenylpyruvate (Schulz et al., FEBS Letts. 318:162, 1993; Secor, Plant Physiol. 106:1429, 1994). Reactions were performed in 20 ml scintillation vials, each capped with a serum stopper through which a polypropylene well containing 50 μl of benzethonium hydroxide was suspended. Each 450 μl reaction mixture contained: 50 mM potassium phosphate buffer (pH 7.3); 50 μl of a freshly prepared 1:1 (v/v) mixture of 150 mM reduced glutathione and 3 mM dichlorophenolindophenol; 2500 units of catalase; and bacterial extract (source of HPPD). Enzyme inhibitors were added where indicated. ^14 C-hydroxyphenylpyruvate (50 μl of a 2 mM solution), prepared according to the method of Secor (1994, supra), was added to initiate the reaction, which proceeded at 30° C. for 30 min. The reaction was stopped by adding 100 μl 4 N sulfuric acid and the mixture was incubated for a further 30 min. The radioactivity trapped in benzethonium hydroxide was counted in a scintillation counter.

Lemna = details: cited from earlier work
[3] = test system: E. coli transformed with the Arabidopsis HPPD gene; test: Brown pigment formation in E. coli transformed with the Arabidopsis HPPD gene (absorption at 450 nm); type: cell-based; details: medium supplemented with tyrosine (FIG. 2)
From the text: B. Production of Brown Pigment and Homogentisic Acid in E. coli
No similar brown pigmentation was associated with untransformed E. coli or with E. coli transformed with the control vector.

albino psdl mutant = details: transferred to MS2 medium supplemented with OHPP or HGA; cited from earlier work

For `CS(=O)(=O)c1ccc(C(=O)C2C(=O)CCCC2=O)c(Cl)c1` [sulcotrione, 2-(2-chloro-4-methanesulfonylbenzoyl)-1,3-cyclohexanedione], the Ki [1] is given as 9.8 nM, the type of inhibition [1] is given as “potent competitive inhibitor” and the “pigment, phytoene and tyrosine changes” value (susceptible plants; accompanying bleaching) is given as “loss of carotenoids and chlorophyll with an increase in phytoene and tyrosine”. The bleaching (susceptible plants) was “strong bleaching”, the IC50 [2] was 45 nM and the “inhibition of the HPPD activity” value (Arabidopsis HPPD; at more than 1 μM sulcotrione (FIG. 4)) was “Nearly complete inhibition”. The IC50 (Arabidopsis HPPD; cell extract of transformed E. coli, pH 7.3, 30° C., 30 min (FIG. 4), read-out: concentration required to cause 50% inhibition of the HPPD activity) was 100 nM and the growth inhibition (Lemna; treatment of Lemna) was “severely inhibited growth”.

In the case of `N[C@@H](Cc1ccc(O)cc1)C(=O)O` [tyrosine], the “formation of the brown pigment” value [3] is reported as “increased”.

For `O=C(O)Cc1cc(O)ccc1O` [homogentisic acid], the “greening of albino psdl mutant” value (albino psdl mutant) is given as “greened” and the “reversal of the herbicidal effect of sulcotrione” value (Lemna; Lemna treated with sulcotrione) is given as “herbicidal effect could be abolished”.

B1: Arabidopsis HPPD: 4-hydroxyphenylpyruvate dioxygenase (HPPD) from Arabidopsis thaliana (AtHPPD) SEQ ID No: 1 (protein)
chain: MGHQNAAVSENQNHDDGAASSPGFKLVGFSKFVRKNPKSDKFKVKRFHHIEFWCGDATNVARRFSWGLGMRFSAKSDLSTGNMVHASYLLTSGDLRFLFTAPYSPSLSAGEIKPTTTASIPSFDHGSCRSFFSSHGLGVRAVAIEVEDAESAFSISVANGAIPSSPPIVLNEAVTIAEVKLYGDVVLRYVSYKAEDTEKSEFLPGFERVEDASSFPLDYGIRRLDHAVGNVPELGPALTYVAGFTGFHQFAEFTADDVGTAESGLNSAVLASNDEMVLLPINEPVHGTKRKSQIQTYLEHNEGAGLQHLALMSEDIFRTLREMRKRSSIGGFDFMPSPPPTYYQNLKKRVGDVLSDDQIKECEELGILVDRDDQGTLLQIFTKPLGDDRPTIFIEIIQRVGCMMKDEEGKAYQSGGCGGFGKGNFSELFKSIEEYEKTLEAKQLVG
With B1 the HPPD activity (Arabidopsis HPPD; extract of E. coli transformed with the Arabidopsis HPPD gene, no inhibitor) was 2.7 μmol/mg protein/hr.
